Measurements: patent publication US8138189B2, “Substituted benzene compounds as modulators of the glucocorticoid receptor” (Hoffman-La Roche Inc., priority 2009, dated 2012)

target: T1, full length human recombinant glucocorticoid receptor (Homo sapiens, UniProt P04150); assay: Glucocorticoid Receptor Binding Assay (fluorescence polarization competitor assay, Fluormone GS Far Red tracer)
T1 construct: partially purified full length human recombinant glucocorticoid receptor; purchased Panvera/Invitrogen PV4302
T1 sequence (P04150 1-777): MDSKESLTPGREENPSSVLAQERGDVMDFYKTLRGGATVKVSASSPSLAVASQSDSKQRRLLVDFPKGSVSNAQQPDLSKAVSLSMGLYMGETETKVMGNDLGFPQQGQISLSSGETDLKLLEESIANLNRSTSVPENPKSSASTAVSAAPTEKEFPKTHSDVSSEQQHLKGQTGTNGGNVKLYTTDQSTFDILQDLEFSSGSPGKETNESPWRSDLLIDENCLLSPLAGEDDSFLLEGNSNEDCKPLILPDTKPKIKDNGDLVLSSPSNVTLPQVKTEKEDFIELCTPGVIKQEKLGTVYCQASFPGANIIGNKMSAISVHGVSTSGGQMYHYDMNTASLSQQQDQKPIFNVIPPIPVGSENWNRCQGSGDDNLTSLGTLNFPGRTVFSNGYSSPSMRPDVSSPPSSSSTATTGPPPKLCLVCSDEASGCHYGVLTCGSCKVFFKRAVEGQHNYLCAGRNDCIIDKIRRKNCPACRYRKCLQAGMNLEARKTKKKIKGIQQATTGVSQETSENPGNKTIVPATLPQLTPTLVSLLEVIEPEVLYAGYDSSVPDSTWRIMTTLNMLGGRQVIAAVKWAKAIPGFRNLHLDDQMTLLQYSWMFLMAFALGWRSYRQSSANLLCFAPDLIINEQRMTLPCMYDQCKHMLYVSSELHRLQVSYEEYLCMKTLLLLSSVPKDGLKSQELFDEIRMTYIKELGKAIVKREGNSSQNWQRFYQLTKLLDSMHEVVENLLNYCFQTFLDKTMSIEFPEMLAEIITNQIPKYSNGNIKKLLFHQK
Outline: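 Partially purified full-length recombinant human GR with a stabilizing coactivator peptide was incubated with Fluormone GS Far Red tracer and serially diluted compound for 3 h at 22 °C in the dark, pH 7.4. Fluorescence polarization was read at 610-660 nm. IC50 came from sigmoidal fitting, and Ki from Cheng-Prusoff.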

Compared with Cc1cc([C@](O)([C@H](C)c2ccc(Oc3ncc(C(=O)O)cc3Cl)cc2Cl)C(F)(F)F)sc1C#N (stereo in doubt) [Example 234, 5-Chloro-6-{3-chloro-4-[2-(5-cyano-4-methyl-thiophen-2-yl)-3,3,3-trifluoro-2-hydroxy-1-methyl-propyl]-phenoxy}-nicotinic acid], Cc1cc([C@@](O)([C@@H](C)c2ccc(Oc3ncc(C(=O)O)cc3Cl)cc2Cl)C(F)(F)F)cn(C)c1=O (stereo in doubt) [Example 251, 5-Chloro-6-{3-chloro-4-[2-(1,5-dimethyl-6-oxo-1,6-dihydro-pyridin-3-yl)-3,3,3-trifluoro-2-hydroxy-1-methyl-propyl]-phenoxy}-nicotinic acid] is 2.6-fold lower in Ki: 1.3 nM for the first, 0.5 nM for the second.

First: C[C@H](c1ccc(Oc2ccc(C(=O)O)cn2)cc1Cl)[C@@](O)(c1ccc(C#N)n1C)C(F)(F)F (stereo in doubt) [Example 236, 6-{3-Chloro-4-[2-(5-cyano-1-methyl-1H-pyrrol-2-yl)-3,3,3-trifluoro-2-hydroxy-1-methyl-propyl]-phenoxy}-nicotinic acid]
Second: Cc1cc(C(O)(C(C)c2ccc(Oc3ccc(C(=O)O)cc3)cc2Cl)C(F)(F)F)ccn1 (stereo not shown) [Example 58, 4-{3-Chloro-4-[3,3,3-trifluoro-2-hydroxy-1-methyl-2-(2-methyl-pyridin-4-yl)-propyl]-phenoxy}-benzoic acid]
The Ki of the first is 9.3-fold higher: 22.3 nM for the first, 2.4 nM for the second.

C[C@H](c1ccc(Oc2cnc(C(=O)O)cn2)c(Cl)c1Cl)[C@@](O)(c1ccc(=O)n(C)c1)C(F)(F)F (stereo in doubt) [Example 238, 5-{2,3-Dichloro-4-[3,3,3-trifluoro-2-hydroxy-1-methyl-2-(1-methyl-6-oxo-1,6-dihydro-pyridin-3-yl)-propyl]-phenoxy}-pyrazine-2-carboxylic acid] and C[C@@H](c1ccc(OC(C)(C)C(=O)O)c(Cl)c1Cl)[C@](O)(c1ccc(=O)n(C)c1)C(F)(F)F (stereo in doubt) [Example 240, 2-{2,3-Dichloro-4-[3,3,3-trifluoro-2-hydroxy-1-methyl-2-(1-methyl-6-oxo-1,6-dihydro-pyridin-3-yl)-propyl]-phenoxy}-2-methyl-propionic acid] are within 1.5-fold of each other in Ki: 112 nM for the first, 82.2 nM for the second.

Compared with COC(=O)c1cnc(Oc2ccc([C@H](C)[C@](O)(c3cc(C)c(=O)n(C)c3)C(F)(F)F)c(Cl)c2)nc1C(F)(F)F (stereo in doubt) [Example 242, 2-{3-Chloro-4-[2-(1,5-dimethyl-6-oxo-1,6-dihydro-pyridin-3-yl)-3,3,3-trifluoro-2-hydroxy-1-methyl-propyl]-phenoxy}-4-trifluoromethyl-pyrimidine-5-carboxylic acid methyl ester], Cc1cc([C@@](O)([C@@H](C)c2ccc(Oc3ncc(C(=O)O)c(C(F)(F)F)n3)cc2Cl)C(F)(F)F)cn(C)c1=O (stereo in doubt) [Example 243, 2-{3-Chloro-4-[2-(1,5-dimethyl-6-oxo-1,6-dihydro-pyridin-3-yl)-3,3,3-trifluoro-2-hydroxy-1-methyl-propyl]-phenoxy}-4-trifluoromethyl-pyrimidine-5-carboxylic acid] is 1.5-fold lower in Ki: 2.7 nM for the first, 1.8 nM for the second. The second binds more tightly here.

Going from COC(=O)c1cnc(Oc2ccc([C@H](C)[C@](O)(c3cc(C)c(=O)n(C)c3)C(F)(F)F)c(Cl)c2)c(Cl)c1 (stereo in doubt) [Example 250, 5-Chloro-6-{3-chloro-4-[2-(1,5-dimethyl-6-oxo-1,6-dihydro-pyridin-3-yl)-3,3,3-trifluoro-2-hydroxy-1-methyl-propyl]-phenoxy}-nicotinic acid methyl ester] to Cc1cc([C@@](O)([C@@H](C)c2ccc(Oc3ncc(C(=O)O)cn3)cc2Cl)C(F)(F)F)cn(C)c1=O (stereo in doubt) [Example 254, 2-{3-Chloro-4-[2-(1,5-dimethyl-6-oxo-1,6-dihydro-pyridin-3-yl)-3,3,3-trifluoro-2-hydroxy-1-methyl-propyl]-phenoxy}-pyrimidine-5-carboxylic acid], the Ki rises from 3 nM to 9.5 nM (3.2-fold).

Compared with Cc1nc(Oc2ccc([C@H](C)[C@](O)(c3cc(C)c(=O)n(C)c3)C(F)(F)F)c(Cl)c2)ccc1C(=O)O (stereo in doubt) [Example 255, 6-{3-Chloro-4-[2-(1,5-dimethyl-6-oxo-1,6-dihydro-pyridin-3-yl)-3,3,3-trifluoro-2-hydroxy-1-methyl-propyl]-phenoxy}-2-methyl-nicotinic acid], Cc1cc(C(O)(C(C)c2ccc(Oc3cccc(C(=O)O)c3)cc2Cl)C(F)(F)F)ccn1 (stereo not shown) [Example 59, 3-{3-Chloro-4-[3,3,3-trifluoro-2-hydroxy-1-methyl-2-(2-methyl-pyridin-4-yl)-propyl]-phenoxy}-benzoic acid] is 3.1-fold higher in Ki: 3.6 nM for the first, 11.2 nM for the second. The first binds more tightly here.

Compared with Cc1cnc(C(O)(C(C)c2ccc(OCc3ccc(C(=O)O)cc3)cc2Cl)C(F)(F)F)cn1 (stereo not shown) [Example 2, 4-{3-Chloro-4-[3,3,3-trifluoro-2-hydroxy-1-methyl-2-(5-methyl-pyrazin-2-yl)-propyl]-phenoxymethyl}-benzoic acid], Cc1cnc([C@](O)([C@H](C)c2ccc(OCc3ccc(C(=O)O)cc3)cc2Cl)C(F)(F)F)cn1 [Example 6, 4-{3-Chloro-4-[(1R,2R)-3,3,3-trifluoro-2-hydroxy-1-methyl-2-(5-methyl-pyrazin-2-yl)-propyl]-phenoxymethyl}-benzoic acid] is 2.6-fold lower in Ki: 21.5 nM for the first, 8.2 nM for the second. The second binds more tightly here.

Going from COC(=O)c1cccc(COc2ccc(C(C)C(O)(c3cnc(C)cn3)C(F)(F)F)c(Cl)c2)c1 (stereo not shown) [Example 3, 3-{3-Chloro-4-[3,3,3-trifluoro-2-hydroxy-1-methyl-2-(5-methyl-pyrazin-2-yl)-propyl]-phenoxymethyl}-benzoic acid methyl ester] to Cc1cnc(C(O)(C(C)c2ccc(OCc3cccc(C(=O)O)c3)cc2Cl)C(F)(F)F)cn1 (stereo not shown) [Example 4, 3-{3-Chloro-4-[3,3,3-trifluoro-2-hydroxy-1-methyl-2-(5-methyl-pyrazin-2-yl)-propyl]-phenoxymethyl}-benzoic acid], the Ki rises from 52.7 nM to 175 nM (3.3-fold).

Going from CCOC(=O)c1ccc(COc2ccc([C@@H](C)[C@@](O)(c3cnc(C)cn3)C(F)(F)F)c(Cl)c2)cc1 [Example 5, 4-{3-Chloro-4-[(1R,2R)-3,3,3-trifluoro-2-hydroxy-1-methyl-2-(5-methyl-pyrazin-2-yl)-propyl]-phenoxymethyl}-benzoic acid ethyl ester] to COC(=O)c1ccc(OCCOc2ccc(C(C)C(O)(c3cnc(C)cn3)C(F)(F)F)c(Cl)c2)cc1 (stereo not shown) [Example 9, 4-(2-{3-Chloro-4-[3,3,3-trifluoro-2-hydroxy-1-methyl-2-(5-methyl-pyrazin-2-yl)-propyl]-phenoxy}-ethoxy)-benzoic acid methyl ester], the Ki falls from 418 nM to 119 nM (3.5-fold). The second binds more tightly here.

Cc1cnc(C(O)(C(C)c2ccc(OCCOc3ccc(C(=O)O)cc3)cc2Cl)C(F)(F)F)cn1 (stereo not shown) [Example 10, 4-(2-{3-Chloro-4-[3,3,3-trifluoro-2-hydroxy-1-methyl-2-(5-methyl-pyrazin-2-yl)-propyl]-phenoxy}-ethoxy)-benzoic acid] and Cc1cc(C(O)(C(C)c2ccc(-c3ccc(C(=O)O)cn3)cc2Cl)C(F)(F)F)ccn1 (stereo not shown) [Example 62, 6-{3-Chloro-4-[3,3,3-trifluoro-2-hydroxy-1-methyl-2-(2-methyl-pyridin-4-yl)-propyl]-phenyl}-nicotinic acid] are within 1.5-fold of each other in Ki: 307 nM for the first, 335 nM for the second.

Cc1cc(C(O)(C(C)c2ccc(-c3cccc(C(=O)O)c3)cc2Cl)C(F)(F)F)ccn1 (stereo not shown) [Example 61, 3′-Chloro-4′-[3,3,3-trifluoro-2-hydroxy-1-methyl-2-(2-methyl-pyridin-4-yl)-propyl]-biphenyl-3-carboxylic acid] and Cc1cc(C(O)(C(C)c2ccc(-c3cccc(CC(=O)O)c3)cc2Cl)C(F)(F)F)ccn1 (stereo not shown) [Example 63, {3′-Chloro-4′-[3,3,3-trifluoro-2-hydroxy-1-methyl-2-(2-methyl-pyridin-4-yl)-propyl]-biphenyl-3-yl}-acetic acid] are within 1.5-fold of each other in Ki: 4.9 nM for the first, 6.4 nM for the second.

Going from Cc1cc(C(O)(C(C)c2ccc(-c3ccc(CC(=O)O)cc3)cc2Cl)C(F)(F)F)ccn1 (stereo not shown) [Example 64, {3′-Chloro-4′-[3,3,3-trifluoro-2-hydroxy-1-methyl-2-(2-methyl-pyridin-4-yl)-propyl]-biphenyl-4-yl}-acetic acid] to Cc1cc(C(O)(C(C)c2ccc(-c3ccc(C(=O)O)nc3)cc2Cl)C(F)(F)F)ccn1 (stereo not shown) [Example 65, 5-{3-Chloro-4-[3,3,3-trifluoro-2-hydroxy-1-methyl-2-(2-methyl-pyridin-4-yl)-propyl]-phenyl}-pyridine-2-carboxylic acid], the Ki rises from 66.3 nM to 214 nM (3.2-fold). The first binds more tightly here.

With Cc1cc(C(O)(C(C)c2ccc(/C=C/c3ccc(C(=O)O)cc3)cc2Cl)C(F)(F)F)ccn1 (stereo not shown) [Example 66, 4-((E)-2-{3-Chloro-4-[3,3,3-trifluoro-2-hydroxy-1-methyl-2-(2-methyl-pyridin-4-yl)-propyl]-phenyl}-vinyl)-benzoic acid] the Ki was 4.4 nM.
